Laboratory results from ChEMBL document CHEMBL1201862, “PubChem BioAssay data set” (2004).
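Briefly, cells in 96-well plates were exposed to five compound concentrations for 48 h, and endpoints were estimated by linear interpolation. The concentration for 50% growth inhibition is given as GI50.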 The source made the active and inactive calls. No stated cut-off is given here; in the data, active = GI50 up to about 1.1 µM and inactive = higher.

Legend:
Test in all cases: NCI tumour cell line growth inhibition, 48 h
KM12 = tested on: KM12
TK-10 = tested on: TK-10
SR = tested on: SR
UO-31 = tested on: UO-31
Hs-578T = tested on: Hs-578T
PC-3 = tested on: PC-3
NCI/ADR-RES = tested on: NCI/ADR-RES
SK-MEL-2 = tested on: SK-MEL-2
SF-268 = tested on: SF-268
M14 = tested on: M14
RXF 393 = tested on: RXF 393
OVCAR-8 = tested on: OVCAR-8
EKVX = tested on: EKVX
SN12C = tested on: SN12C
ACHN = tested on: ACHN
K562 = tested on: K562
RPMI-8226 = tested on: RPMI-8226
LOX IMVI = tested on: LOX IMVI
COLO 205 = tested on: COLO 205
HOP-92 = tested on: HOP-92

| Compound | GI50 (KM12) | GI50 (TK-10) | GI50 (SR) | GI50 (UO-31) | GI50 (Hs-578T) | GI50 (PC-3) | GI50 (NCI/ADR-RES) | GI50 (SK-MEL-2) | GI50 (SF-268) | GI50 (M14) | GI50 (RXF 393) | GI50 (OVCAR-8) | GI50 (EKVX) | GI50 (SN12C) | GI50 (ACHN) | GI50 (K562) | GI50 (RPMI-8226) | GI50 (LOX IMVI) | GI50 (COLO 205) | GI50 (HOP-92) |
| --- | --- | --- | --- | --- | --- | --- | --- | --- | --- | --- | --- | --- | --- | --- | --- | --- | --- | --- | --- | --- |
| Cc1ccc(C2=Nc3cccc4cccc(c34)N2)cc1 | > 100 µM (inactive) | > 100 µM (inactive) | > 100 µM (inactive) | > 100 µM (inactive) | > 100 µM (inactive) | > 100 µM (inactive) | > 100 µM (inactive) | > 100 µM (inactive) | > 100 µM (inactive) | > 100 µM (inactive) | > 100 µM (inactive) | > 100 µM (inactive) | > 100 µM (inactive) | > 100 µM (inactive) | > 100 µM (inactive) | > 100 µM (inactive) | > 100 µM (inactive) | > 100 µM (inactive) | > 100 µM (inactive) | > 100 µM (inactive) |
| Cn1c(=O)c2c(nc3sc4c(n32)C(=O)c2c(O)ccc(O)c2C4=O)n(C)c1=O | 2.77 µM (inactive) | 5.97 µM (inactive) | 0.598 µM (active) | 3.74 µM (inactive) | 16.3 µM (inactive) | 5.4 µM (inactive) | 2.74 µM (inactive) | 4.42 µM (inactive) | 6.04 µM (inactive) | 2.51 µM (inactive) | 2.68 µM (inactive) | 2.34 µM (inactive) | 13 µM (inactive) | 1.63 µM (inactive) | 2.94 µM (inactive) | 0.64 µM (active) | 0.298 µM (active) | 0.871 µM (active) | 3.46 µM (inactive) | 2.66 µM (inactive) |
| C#C[C@]1(O)CC[C@H]2[C@@H]3CCC4=C/C(=N\OCCN(CC)CC)CC[C@]4(C)[C@H]3CC[C@@]21C | 2.92 µM (inactive) | 6.7 µM (inactive) | 2.94 µM (inactive) | 3.72 µM (inactive) | 3.18 µM (inactive) | 3.18 µM (inactive) | 2.59 µM (inactive) | 3.27 µM (inactive) | 2.92 µM (inactive) | 3.02 µM (inactive) | 2.41 µM (inactive) | 7.24 µM (inactive) | 6.87 µM (inactive) | 9.12 µM (inactive) | 6.7 µM (inactive) | 3.09 µM (inactive) | 2.53 µM (inactive) | 3.13 µM (inactive) | 3.02 µM (inactive) | 16.5 µM (inactive) |
| O=C(NCCCNCCN1C(=O)c2cccc3cc([N+](=O)[O-])cc(c23)C1=O)c1cc(-c2ccccc2)nc2ccccc12 | 4.4 µM (inactive) | 7.74 µM (inactive) | 0.426 µM (active) | 2.52 µM (inactive) | 3.41 µM (inactive) | 3.61 µM (inactive) | 4.22 µM (inactive) | 3.31 µM (inactive) | 1.39 µM (inactive) | 1.72 µM (inactive) | 1.49 µM (inactive) | 0.933 µM (active) | 7.52 µM (inactive) | 3.16 µM (inactive) | 0.991 µM (active) | 0.836 µM (active) | 1.13 µM (inactive) | 1.04 µM (active) | 1.45 µM (inactive) | 3.18 µM (inactive) |
| O=C1C(Cl)=C(N2C(=O)CCCC2=O)C(=O)c2ccccc21 | 62.1 µM (inactive) | 17.5 µM (inactive) | 21.5 µM (inactive) | 11 µM (inactive) | 31.2 µM (inactive) | 19.6 µM (inactive) | 22.6 µM (inactive) | 22.5 µM (inactive) | 23.9 µM (inactive) | 19.5 µM (inactive) | 15.7 µM (inactive) | 11.7 µM (inactive) | 16.3 µM (inactive) | 21.2 µM (inactive) | 8.87 µM (inactive) | 2.7 µM (inactive) | 7.45 µM (inactive) | 20.6 µM (inactive) | 6.37 µM (inactive) | 3.46 µM (inactive) |
| CC1(c2cccc(Cl)c2)CC(c2cccc(Cl)c2)=C(C#N)C(=C(C#N)C#N)N1 (stereo unspecified) | 18 µM (inactive) | 17.7 µM (inactive) | 14.3 µM (inactive) | 15.7 µM (inactive) | 9.75 µM (inactive) | 17.6 µM (inactive) | 18.9 µM (inactive) | 21.7 µM (inactive) | 4.62 µM (inactive) | 17.1 µM (inactive) | 14.8 µM (inactive) | 17.9 µM (inactive) | 22.1 µM (inactive) | 19.4 µM (inactive) | 17.8 µM (inactive) | 14.3 µM (inactive) | 5.28 µM (inactive) | 19.8 µM (inactive) | 13.2 µM (inactive) | 6.19 µM (inactive) |
| CC(C)(Cl)C(Br)CC/C(CBr)=C(/Cl)CCl.CC(C)(Cl)C(Br)CC/C(CBr)=C(\Cl)CCl (stereo unspecified) | 2.02 µM (inactive) | 4.18 µM (inactive) | 0.331 µM (active) | 1.95 µM (inactive) | 3.22 µM (inactive) | 2.33 µM (inactive) | 2.21 µM (inactive) | 2.23 µM (inactive) | 2.25 µM (inactive) | 1.49 µM (inactive) | 2.14 µM (inactive) | 1.75 µM (inactive) | 6.17 µM (inactive) | 0.497 µM (active) | 5.64 µM (inactive) | 1.01 µM (active) | 1.64 µM (inactive) | 1.61 µM (inactive) | 0.607 µM (active) | 1.9 µM (inactive) |
| COn1cc(CO)c2ccccc21 | > 100 µM (inactive) | 5.96 µM (inactive) | 31.8 µM (inactive) | 33.1 µM (inactive) | > 68.7 µM (inactive) | > 75.2 µM (inactive) | > 90.8 µM (inactive) | > 54.3 µM (inactive) | > 88.7 µM (inactive) | > 86.9 µM (inactive) | 21.5 µM (inactive) | > 100 µM (inactive) | > 83.2 µM (inactive) | > 84.7 µM (inactive) | 61.4 µM (inactive) | 31.2 µM (inactive) | 66.5 µM (inactive) | > 100 µM (inactive) | 51.4 µM (inactive) | > 61.2 µM (inactive) |
| COc1ccc2[nH]cc(CCNC(=O)[C@H](Cc3ccccc3)NC(=O)[C@@H](NCC(F)(F)F)C(C)C)c2c1 | 18.5 µM (inactive) | 22 µM (inactive) | 36.2 µM (inactive) | 22.9 µM (inactive) | 18.6 µM (inactive) | 18.2 µM (inactive) | 19.1 µM (inactive) | 19.4 µM (inactive) | – | 17.7 µM (inactive) | 15.6 µM (inactive) | 23.3 µM (inactive) | 17.4 µM (inactive) | 24.5 µM (inactive) | 28.2 µM (inactive) | 29.7 µM (inactive) | 8.17 µM (inactive) | 22.1 µM (inactive) | 17.9 µM (inactive) | 12.1 µM (inactive) |
| O=C(c1ccccc1)C1C[C@H]2CO[C@H](c3ccccc3)N2C1=O (stereo partly specified) | > 100 µM (inactive) | > 100 µM (inactive) | > 100 µM (inactive) | > 100 µM (inactive) | > 100 µM (inactive) | > 100 µM (inactive) | > 100 µM (inactive) | > 100 µM (inactive) | > 100 µM (inactive) | > 100 µM (inactive) | > 100 µM (inactive) | > 100 µM (inactive) | > 100 µM (inactive) | > 100 µM (inactive) | > 100 µM (inactive) | > 100 µM (inactive) | > 100 µM (inactive) | > 100 µM (inactive) | > 100 µM (inactive) | > 100 µM (inactive) |
| O=C(/C=C1\C[C@H]2C=Nc3ccccc3C(=O)N2C1)NCCCCCNC(=O)/C=C1\C[C@H]2C=Nc3ccccc3C(=O)N2C1 | 17.7 µM (inactive) | 4.32 µM (inactive) | 1.6 µM (inactive) | 1.94 µM (inactive) | 22.6 µM (inactive) | 13.8 µM (inactive) | 24.3 µM (inactive) | 15.1 µM (inactive) | 6.49 µM (inactive) | 3.49 µM (inactive) | 3.56 µM (inactive) | 2.99 µM (inactive) | 18 µM (inactive) | 4.74 µM (inactive) | 1.98 µM (inactive) | 2.88 µM (inactive) | 4.28 µM (inactive) | 1.98 µM (inactive) | 0.532 µM (active) | 4.63 µM (inactive) |
| COc1ccc2oc(=O)c(-c3cc4c(c(C)n3)c(=O)oc3ccc(OC)cc34)cc2c1 | > 100 µM (inactive) | > 100 µM (inactive) | > 100 µM (inactive) | > 100 µM (inactive) | 27.4 µM (inactive) | > 100 µM (inactive) | > 100 µM (inactive) | > 100 µM (inactive) | 55.8 µM (inactive) | > 100 µM (inactive) | > 100 µM (inactive) | > 100 µM (inactive) | > 100 µM (inactive) | > 100 µM (inactive) | 27.2 µM (inactive) | > 100 µM (inactive) | > 100 µM (inactive) | > 100 µM (inactive) | > 100 µM (inactive) | > 100 µM (inactive) |
| COC(=O)c1c2c(cc3c1CC1(Cc4cc5c(c(C)c4C1)CCC5)C3)CCC2 (stereo unspecified) | – | > 100 µM (inactive) | > 100 µM (inactive) | > 100 µM (inactive) | > 100 µM (inactive) | > 100 µM (inactive) | > 100 µM (inactive) | > 100 µM (inactive) | > 100 µM (inactive) | > 100 µM (inactive) | 90.4 µM (inactive) | > 100 µM (inactive) | > 100 µM (inactive) | – | > 100 µM (inactive) | > 100 µM (inactive) | > 100 µM (inactive) | > 100 µM (inactive) | – | > 100 µM (inactive) |
| COc1ccc(C(C#N)NCCCCCCNC(C#N)c2ccc(OC)cc2)cc1 (stereo unspecified) | > 100 µM (inactive) | > 100 µM (inactive) | > 100 µM (inactive) | > 100 µM (inactive) | > 100 µM (inactive) | > 100 µM (inactive) | > 100 µM (inactive) | > 100 µM (inactive) | > 100 µM (inactive) | > 100 µM (inactive) | > 100 µM (inactive) | > 100 µM (inactive) | > 100 µM (inactive) | > 100 µM (inactive) | > 100 µM (inactive) | > 100 µM (inactive) | > 100 µM (inactive) | > 100 µM (inactive) | > 100 µM (inactive) | > 100 µM (inactive) |
